Measurements published in US6339081B1, “Composition and use” (priority 1996, dated 2002).
Like-named read-outs stand apart in the source and are kept apart here.

Tested on: Pseudomonas aeruginosa NCIB 10421
Test: MIC and Fractional Inhibitory Concentration (FIC) in microtitre array
Format: cell-based
Procedure: The gram negative bacterium, Pseudomonas aeruginosa NCIB 10421 was grown in nutrient broth to stationary phase during 18 hours and contained approximately 10^9 organisms/ml. A 0.1% (v/v) inoculum was used to seed fresh nutrient broth and 100 μl was then added to each well of a microtitre plate, except for the first well which contained 200 μl.
Solutions of zinc acetate (ZnAc) and the 2:1 zinc complex of 3-hydroxy-4-methylthiazol-2(3H)-thione (ZHMT), respectively, were prepared in nutrient broth at twice the final concentration to be used in the microtitre array. A microtitre array was prepared with concentration of zinc acetate and ZHMT from twice the MIC down to zero concentration in a 10×10 array. Since the array contains only 96 wells, the highest and lowest concentration of the zinc acetate and ZHMT were omitted. The dilution of the ZHMT was doubled across the ordinate axis of the array by transferring 100 μl aliquots so that the final volume in each well was 200 μl. The microtitre plate was then incubated for 16 to 24 hours at 37° C. and the presence of bacterial growth assessed visually.
The FIC is defined as the sum of the fractional inhibitory concentration of each component. The FIC of the individual component is the ratio of the concentration of the component in the binary mixture divided by its MIC.

[1] = ZnAc replaced by the same weight of the metal salt

| Compound | synergy with ZHMT [1] | other results |
| --- | --- | --- |
| [Cl][Cu][Cl] [cupric chloride] | no synergy |  |
| [Cl][Fe]([Cl])[Cl] [ferric chloride] |  | effect on the ZHMT (ZnAc replaced with half the weight of the metal salt): antagonistic effect |
| [Cl-].[Cl-].[Mg+2] [magnesium chloride] |  | synergy with ZHMT: no synergy |
| manganese chloride | no synergy |  |
